What was measured:
Assay in all cases: relative viability (nuclei count vs DMSO), 5 days (fraction); higher = more cells survive
Sorafenib + Vorinostat = compound: CNC(=O)c1cc(Oc2ccc(NC(=O)Nc3ccc(Cl)c(C(F)(F)F)c3)cc2)ccn1 [Sorafenib] + O=C(CCCCCCC(=O)Nc1ccccc1)NO [Vorinostat] (partner 1 µM)
Procedure, shortened: (§1)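 Lung cancer cell lines were pin-tool dosed in 1536-well plates on the day after seeding, with either a lone drug or a fixed anchor-drug dose plus five library-drug doses (not always all listed) in √10 steps. Nuclei were counted on 4× images after 5 days. Relative viability is the ratio of treated-well to vehicle-well nuclei counts, with each value a median of duplicate plates.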

Sorafenib + Trametinib = compound: CNC(=O)c1cc(Oc2ccc(NC(=O)Nc3ccc(Cl)c(C(F)(F)F)c3)cc2)ccn1 [Sorafenib] + CC(=O)Nc1cccc(-n2c(=O)n(C3CC3)c(=O)c3c(Nc4ccc(I)cc4F)n(C)c(=O)c(C)c32)c1 [Trametinib] (partner 0.02 µM)
Procedure, shortened: as §1

Sorafenib + Lapatinib = compound: CNC(=O)c1cc(Oc2ccc(NC(=O)Nc3ccc(Cl)c(C(F)(F)F)c3)cc2)ccn1 [Sorafenib] + CS(=O)(=O)CCNCc1ccc(-c2ccc3ncnc(Nc4ccc(OCc5cccc(F)c5)c(Cl)c4)c3c2)o1 [Lapatinib] (partner 2 µM)
Procedure, shortened: as §1

Sorafenib + Dasatinib = compound: CNC(=O)c1cc(Oc2ccc(NC(=O)Nc3ccc(Cl)c(C(F)(F)F)c3)cc2)ccn1 [Sorafenib] + Cc1nc(Nc2ncc(C(=O)Nc3c(C)cccc3Cl)s2)cc(N2CCN(CCO)CC2)n1 [Dasatinib] (partner 0.075 µM)
Procedure, shortened: as §1

Sorafenib + Foretinib = compound: CNC(=O)c1cc(Oc2ccc(NC(=O)Nc3ccc(Cl)c(C(F)(F)F)c3)cc2)ccn1 [Sorafenib] + COc1cc2c(Oc3ccc(NC(=O)C4(C(=O)Nc5ccc(F)cc5)CC4)cc3F)ccnc2cc1OCCCN1CCOCC1 [Foretinib] (partner 0.25 µM)
Procedure, shortened: as §1

Cell Line	relative viability (Sorafenib + Vorinostat; first compound 0.08 µM)	relative viability (Sorafenib + Vorinostat; first compound 0.253 µM)	relative viability (Sorafenib + Vorinostat; first compound 2.53 µM)	relative viability (Sorafenib + Vorinostat; first compound 8 µM)	relative viability (Sorafenib + Trametinib; first compound 0.08 µM)	relative viability (Sorafenib + Trametinib; first compound 0.253 µM)	relative viability (Sorafenib + Trametinib; first compound 2.53 µM)	relative viability (Sorafenib + Trametinib; first compound 8 µM)	relative viability (Sorafenib + Lapatinib; first compound 0.08 µM)	relative viability (Sorafenib + Lapatinib; first compound 0.253 µM)	relative viability (Sorafenib + Lapatinib; first compound 8 µM)	relative viability (Sorafenib + Dasatinib; first compound 0.08 µM)	relative viability (Sorafenib + Dasatinib; first compound 0.253 µM)	relative viability (Sorafenib + Dasatinib; first compound 2.53 µM)	relative viability (Sorafenib + Dasatinib; first compound 8 µM)	relative viability (Sorafenib + Foretinib; first compound 0.08 µM)	relative viability (Sorafenib + Foretinib; first compound 2.53 µM)	relative viability (Sorafenib + Foretinib; first compound 8 µM)	relative viability (Sorafenib + Lapatinib; first compound 2.53 µM)	relative viability (Sorafenib + Foretinib; first compound 0.253 µM)
201T	1.01	0.946	0.963	0.926	0.679	0.726	0.735	0.762	1.06	0.991	1.03	0.584	0.578	0.596	0.458	1.23	1.11	0.884		
A-427	0.84	0.894	0.914	1.01	0.731	0.754	0.551	0.383	1.04	0.948	1.06	0.75	0.671		0.31	1.24	0.94	0.754	1.01	0.989
ABC-1	1.23	0.811	1.22	0.482					1.25	1.19	0.726	0.625	0.493	0.619	0.351	1.06	1.38	0.392	1.23	1.11
BEN	0.567	0.621	0.685	0.593	1.11	0.911	0.945	0.913	0.857	0.675	0.614	0.342	0.255	0.381	0.309	0.755	0.811	0.526	0.782	0.518
CAL-12T	0.723	0.722	0.72	0.494	0.5	0.312	0.339	0.213	0.768	0.685	0.682	0.658		0.415	0.114	1.39	1.03	0.868	0.724	1.05
COR-L23	0.512	0.413	0.478	0.32	0.645	0.433	0.312	0.232	1.08	0.795	0.914	0.55	0.495	0.514	0.235	1.13	0.937	0.765	0.921	0.982
COR-L 105	1.01	0.696	0.946	0.551	0.51	0.472	0.432	0.378	0.413	0.393	0.389	0.475	0.31		0.356	1.32	1.18	1.03	0.482	0.982
ChaGo-K-1	0.737	0.689	0.775	0.557	0.884	0.855	0.886	0.708				0.649	0.505	0.577	0.455	0.961	0.9			0.965
EKVX	0.718	0.723	0.832	0.803	0.36	0.349	0.317	0.219	0.248	0.2	0.229	0.628	0.449	0.376	0.349	1.09	0.672	0.606	0.249	0.748
EMC-BAC-2	0.481		0.546	0.479	0.86		0.7	0.44	0.924	0.813	0.879	0.301	0.268	0.354	0.299	1.02	1	0.658	0.883	0.819
EPLC-272H	0.524	0.436	0.429	0.388	0.298	0.274	0.27	0.205	1.08	0.838	0.735	0.479	0.341	0.402	0.254	0.702	0.788	0.508	1.04	0.716
H3255		0.722	0.723	0.618	0.619	0.563	0.463	0.364	0.56	0.222	0.244	0.497	0.344	0.345	0.201	1.06	0.829	0.567	0.295	
HARA	0.517	0.6	0.512	0.569	0.626		0.233	0.228	0.838	0.625	0.638	0.296	0.197	0.248	0.229	0.967	0.898	0.889	0.825	0.916
HCC-15	0.973	0.764	0.83	0.576	0.411	0.354	0.396	0.3	0.816	0.777	0.617	0.697	0.68	0.774	0.417	0.999	1	0.869	0.831	0.933
HCC-44	1.03	1.05	1.09	1.16	1.07	1.04	1.01		0.926	0.919	0.812								0.949	
HCC-78	0.459	0.331	0.532	0.496	0.807	0.646	0.897	0.523	1.06	0.755	0.86	0.46	0.393	0.549	0.397	0.632	0.801	0.905	0.815	0.537
HCC-366	0.315	0.343	0.256	0.22	0.403	0.436	0.331	0.226	1.21	0.859	1.04	0.626	0.551	0.639	0.518	0.927	0.937	0.94	0.805	0.957
